These compounds were tested against HPK1 (Homo sapiens (Human), UniProt Q92918) (assay: HPK1 Lantha binding assay ("Lanth")). Settings: binding assays; Morrison Ki fit.
Summary of the method: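 Ki values are from Morrison-equation fitting of 665/615 nm TR-FRET signals, taking enzyme level, tracer level and tracer Kd into account. The assay mix held HPK1 (2 nM), Eu-anti-GST antibody (2 nM) and Tracer222 (15 nM). Incubations were two 1 h steps at 23 °C, on 5-fold serial compound dilutions.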

Chain of HPK1 (Q92918 1-346 limits assumed): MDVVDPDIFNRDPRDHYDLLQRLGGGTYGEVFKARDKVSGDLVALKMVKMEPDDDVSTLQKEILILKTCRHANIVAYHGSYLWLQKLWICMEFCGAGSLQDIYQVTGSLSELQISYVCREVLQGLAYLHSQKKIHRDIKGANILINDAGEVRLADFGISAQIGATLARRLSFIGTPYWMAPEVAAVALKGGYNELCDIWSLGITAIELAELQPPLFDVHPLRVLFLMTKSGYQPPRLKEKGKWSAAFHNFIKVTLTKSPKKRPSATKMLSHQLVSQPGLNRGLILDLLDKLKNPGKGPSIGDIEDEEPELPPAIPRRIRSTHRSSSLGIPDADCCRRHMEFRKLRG

In order of rising Ki:
1. Cc1c(CC#N)ccnc1-c1cccc(-c2cnc3c(c2)C2(CC2)CN3)c1F [Compound 251, 2-(2-(3-(1′,2′-Dihydrospiro[cyclopropane-1,3′-pyrrolo[2,3-b]pyridin]-5′-yl)-2-fluorophenyl)-3-methylpyridin-4-yl)acetonitrile]  3.15 nM
2. Cc1c(CC#N)ccnc1-c1cccc(-c2cnc3c(c2Cl)C2(CC=CC2)CN3)c1 [Compound 249, 2-(2-(3-(4′-Chloro-1′,2′-dihydrospiro[cyclopentane-1,3′-pyrrolo[2,3-b]pyridin]-3-en-5′-yl)phenyl)-3-methylpyridin-4-yl)acetonitrile]  4.3 nM
3. CN(C)C(=O)c1c(N)ccc(-c2cnc3c(c2Cl)[C@]2(CC[C@@H](CO)CC2)CN3)c1F [Compound 248b, 6-Amino-3-((1r,4r)-4′-chloro-4-(hydroxymethyl)-1′,2′-dihydrospiro[cyclohexane-1,3′-pyrrolo[2,3-b]pyridin]-5′-yl)-2-fluoro-N,N-dimethylbenzamide]  4.89 nM
4. Cc1c(CC#N)ccnc1-c1cccc(-c2cnc3c(c2Cl)C2(CC=CC2)CN3)c1F [Compound 252, 2-(2-(3-(4′-Chloro-1′,2′-dihydrospiro[cyclopentane-1,3′-pyrrolo[2,3-b]pyridin]-3-en-5′-yl)-2-fluorophenyl)-3-methylpyridin-4-yl)acetonitrile]  5.94 nM
5. CN(C)C(=O)c1c(N)ccc(-c2cnc3c(c2Cl)[C@]2(CC[C@H](CO)CC2)CN3)c1F [Compound 248a, 6-Amino-3-((1s,4s)-4′-chloro-4-(hydroxymethyl)-1′,2′-dihydrospiro[cyclohexane-1,3′-pyrrolo[2,3-b]pyridin]-5′-yl)-2-fluoro-N,N-dimethylbenzamide]  6.01 nM
6. N#CC1CCCCN1C(=O)c1cccc(-c2cnc3c(c2)C2(CC2)CN3)c1F (stereo not shown) [Compound 244, 1-(3-(1′,2′-Dihydrospiro[cyclopropane-1,3′-pyrrolo[2,3-b]pyridin]-5′-yl)-2-fluorobenzoyl)piperidine-2-carbonitrile]  8.25 nM
7. CN(C)C(=O)c1cccc(-c2cnc3c(c2Cl)C2(CC=CC2)CN3)c1F [Compound 227, 3-(4′-Chloro-1′,2′-dihydrospiro[cyclopentane-1,3′-pyrrolo[2,3-b]pyridin]-3-en-5′-yl)-2-fluoro-N,N-dimethylbenzamide]  11.2 nM
8. Cc1c(CC#N)ccnc1-c1cccc(-c2cnc3c(c2)C2(CC2)CN3)c1 [Compound 242, 2-(2-(3-(1′,2′-Dihydrospiro[cyclopropane-1,3′-pyrrolo[2,3-b]pyridin]-5′-yl)phenyl)-3-methylpyridin-4-yl)acetonitrile]  11.7 nM
9. CN(C)C(=O)c1c(N)ccc(-c2cnc3c(c2Cl)[C@]2(CC[C@H](C(N)=O)CC2)CN3)c1F [Compound 235b, (1s,4s)-5′-(4-Amino-3-(dimethylcarbamoyl)-2-fluorophenyl)-4′-chloro-1′,2′-dihydrospiro[cyclohexane-1,3′-pyrrolo[2,3-b]pyridine]-4-carboxamide]  11.9 nM
10. CN(C)C(=O)c1c(N)ccc(-c2cnc3c(c2Cl)[C@]2(CC[C@H](C#N)CC2)CN3)c1F [Compound 241b, 6-Amino-3-((1s,4s)-4′-chloro-4-cyano-1′,2′-dihydrospiro[cyclohexane-1,3′-pyrrolo[2,3-b]pyridin]-5′-yl)-2-fluoro-N,N-dimethylbenzamide]  12.5 nM
11. CN(C)C(=O)c1cccc(-c2cnc3c(c2Cl)C2(CC=CC2)CN3)c1 [Compound 226, 3-(4′-Chloro-1′,2′-dihydrospiro[cyclopentane-1,3′-pyrrolo[2,3-b]pyridin]-3-en-5′-yl)-N,N-dimethylbenzamide]  14 nM
12. CN(C)C(=O)c1c(N)ccc(-c2cnc3c(c2Cl)[C@]2(CC[C@H](C(C)(C)O)CC2)CN3)c1F [Compound 255a, 6-Amino-3-((1s,4s)-4′-chloro-4-(2-hydroxypropan-2-yl)-1′,2′-dihydrospiro[cyclohexane-1,3′-pyrrolo[2,3-b]pyridin]-5′-yl)-2-fluoro-N,N-dimethylbenzamide]  19.9 nM
13. Cc1cc(C)n(-c2cccc(-c3cnc4c(c3Cl)C3(CC=CC3)CN4)c2)n1 [Compound 238, 4′-Chloro-5′-(3-(3,5-dimethyl-1H-pyrazol-1-yl)phenyl)-1′,2′-dihydrospiro[cyclopentane-1,3′-pyrrolo[2,3-b]pyridin]-3-ene]  22.9 nM
14. Cc1c(-c2ccc(N)c(C(=O)N(C)C)c2F)cnc2c1C1(CCCCC1)CN2 [Compound 233, 6-Amino-2-fluoro-N,N-dimethyl-3-(4′-methyl-1′,2′-dihydrospiro[cyclohexane-1,3′-pyrrolo[2,3-b]pyridin]-5′-yl)benzamide]  26.1 nM
15. NC(=O)C1(c2cccc(-c3cnc4c(c3Cl)C3(CC=CC3)CN4)c2)CC1 [Compound 236, 1-(3-(4′-Chloro-1′,2′-dihydrospiro[cyclopentane-1,3′-pyrrolo[2,3-b]pyridin]-3-en-5′-yl)phenyl)cyclopropane-1-carboxamide]  33.2 nM
16. O=C(c1cccc(-c2cnc3c(c2)C2(CC2)CN3)c1F)N1CCCCC1 [Compound 232, (3-(1′,2′-dihydrospiro[cyclopropane-1,3′-pyrrolo[2,3-b]pyridin]-5′-y1)-2-fluorophenyl)(piperidin-1-yl)methanone]  33.7 nM
17. CC(C)[C@@H]1C[C@]12CNc1ncc(-c3ccc(N)c(C(=O)N(C)C)c3F)cc12 [Compound 234b, 6-Amino-2-fluoro-3-((1S,2S)-2-isopropyl-1′,2′-dihydrospiro[cyclopropane-1,3′-pyrrolo[2,3-b]pyridin]-5′-yl)-N,N-dimethylbenzamide]  38 nM
18. CN(C)C(=O)c1c(N)ccc(-c2cnc3c(c2Cl)[C@]2(CC[C@@](C)(C#N)CC2)CN3)c1F [Compound 250b, 6-Amino-3-((1r,4r)-4′-chloro-4-cyano-4-methyl-1′,2′-dihydrospiro[cyclohexane-1,3′-pyrrolo[2,3-b]pyridin]-5′-yl)-2-fluoro-N,N-dimethylbenzamide]  41.3 nM
19. Cn1cc(C2CCCCN2C(=O)c2cccc(-c3cnc4c(c3)[C@]3(CC[C@H](O)CC3)CN4)c2F)cn1 (stereo partly drawn) [Compound 245a, (2-Fluoro-3-((1s,4s)-4-hydroxy-1′,2′-dihydrospiro[cyclohexane-1,3′-pyrrolo[2,3-b]pyridin]-5′-yl)phenyl)((R)-2-(1-methyl-1H-pyrazol-4-yl)piperidin-1-yl)methanone]  42 nM
20. CN(C)C(=O)c1c(N)ccc(-c2cnc3c(c2Cl)[C@]2(CC[C@@H](C#N)CC2)CN3)c1F [Compound 241a, 6-Amino-3-((1r,4r)-4′-chloro-4-cyano-1′,2′-dihydrospiro[cyclohexane-1,3′-pyrrolo[2,3-b]pyridin]-5′-yl)-2-fluoro-N,N-dimethylbenzamide]  44.8 nM
21. CN(C)C(=O)c1c(N)ccc(-c2cnc3c(c2Cl)[C@]2(CC[C@@H](C(N)=O)CC2)CN3)c1F [Compound 235a, (1r,4r)-5′-(4-Amino-3-(dimethylcarbamoyl)-2-fluorophenyl)-4′-chloro-1′,2′-dihydrospiro[cyclohexane-1,3′-pyrrolo[2,3-b]pyridine]-4-carboxamide]  46.7 nM
22. Nc1ccc(-c2cnc3c(c2Cl)C2(CC=CC2)CN3)cc1 [Compound 224, 4-(4′-Chloro-1′,2′-dihydrospiro[cyclopentane-1,3′-pyrrolo[2,3-b]pyridin]-3-en-5′-yl)aniline]  126 nM
23. O=C(c1ccc(-c2cnc3c(c2Cl)C2(CC=CC2)CN3)cc1Cl)N1CCC(O)CC1 [Compound 230, (2-Chloro-4-(4′-chloro-1′,2′-dihydrospiro[cyclopentane-1,3′-pyrrolo[2,3-b]pyridin]-3-en-5′-yl)phenyl)(4-hydroxypiperidin-1-yl)methanone]  173 nM
24. CC(C)(C)c1nnc(-c2cccc(-c3cnc4c(c3Cl)C3(CC=CC3)CN4)c2)o1 [Compound 247, 2-(tert-Butyl)-5-(3-(4′-chloro-1′,2′-dihydrospiro[cyclopentane-1,3′-pyrrolo[2,3-b]pyridin]-3-en-5′-yl)phenyl)-1,3,4-oxadiazole]  253 nM
25. CC(=O)Nc1cccc(-c2cnc3c(c2Cl)C2(CC=CC2)CN3)c1 [Compound 222, N-(3-(4′-Chloro-1′,2′-dihydrospiro[cyclopentane-1,3′-pyrrolo[2,3-b]pyridin]-3-en-5′-yl)phenyl)acetamide]  275 nM
26. Clc1c(-c2ccc(Oc3ncccn3)cc2)cnc2c1C1(CC=CC1)CN2 [Compound 237, 4′-Chloro-5′-(4-(pyrimidin-2-yloxy)phenyl)-1′,2′-dihydrospiro[cyclopentane-1,3′-pyrrolo[2,3-b]pyridin]-3-ene]  283 nM
27. N#CCCNC(=O)c1ccc(-c2cnc3c(c2Cl)C2(CC=CC2)CN3)cc1 [Compound 221, 4-(4′-Chloro-1′,2′-dihydrospiro[cyclopentane-1,3′-pyrrolo[2,3-b]pyridin]-3-en-5′-yl)-N-(2-cyanoethyl)benzamide]  303 nM
28. Clc1c(-c2ccc(COC3CCOCC3)cc2)cnc2c1C1(CC=CC1)CN2 [Compound 220, 4′-Chloro-5′-(4-(((tetrahydro-2H-pyran-4-yl)oxy)methyl)phenyl)-1′,2′-dihydrospiro[cyclopentane-1,3′-pyrrolo[2,3-b]pyridin]-3-ene]  308 nM
29. Nc1ccc(-c2cnc3c(c2Cl)C2(CC=CC2)CN3)c(F)c1 [Compound 225, 4-(4′-Chloro-1′,2′-dihydrospiro[cyclopentane-1,3′-pyrrolo[2,3-b]pyridin]-3-en-5′-yl)-3-fluoroaniline]  363 nM
30. COCCc1ccc(-c2cnc3c(c2Cl)C2(CC=CC2)CN3)cc1 [Compound 223, 4′-Chloro-5′-(4-(2-methoxyethyl)phenyl)-1′,2′-dihydrospiro[cyclopentane-1,3′-pyrrolo[2,3-b]pyridin]-3-ene]  436 nM
31. O=C(c1ccc(-c2cnc3c(c2Cl)C2(CC=CC2)CN3)cc1)N1CCOCC1 [Compound 231, (4-(4′-Chloro-1′,2′-dihydrospiro[cyclopentane-1,3′-pyrrolo[2,3-b]pyridin]-3-en-5′-yl)phenyl)(morpholino)methanone]  447 nM
